Results taken from ChEMBL document CHEMBL4813982, “Novel pyrazolo[4,3-d]pyrimidine microtubule targeting agents (MTAs): Synthesis, structure-activity relationship, in vitro and in vivo evaluation as antitumor agents” (Bioorg Med Chem Lett, 2021).

What was measured:
[1] = test system: SR; assay: Growth inhibition of human SR cells incubated for 48 hrs by sulforhodamine B assay; type: functional
[2] = test system: MOLT-4; assay: Growth inhibition of human MOLT-4 cells incubated for 48 hrs by sulforhodamine B assay; type: functional
[3] = test system: NCI-H322M; assay: Growth inhibition of human NCI-H322M cells incubated for 48 hrs by sulforhodamine B assay; type: functional
[4] = test system: NCI/ADR-RES; assay: Antiproliferative activity against human NCI/ADR-RES cells overexpressing Pgp; type: functional, cell-based
[5] = target: Tubulin; assay: Inhibition of tubulin assembly (unknown origin); type: protein-complex assay, Homo sapiens
[6] = test system: SNB-19; assay: Growth inhibition of human SNB-19 cells incubated for 48 hrs by sulforhodamine B assay; type: functional
[7] = test system: HCC 2998; assay: Growth inhibition of human HCC 2998 cells incubated for 48 hrs by sulforhodamine B assay; type: functional
[8] = test system: Hs-578T; assay: Growth inhibition of human HS-578T cells incubated for 48 hrs by sulforhodamine B assay; type: functional
[9] = test system: NCI-H460; assay: Growth inhibition of human NCI-H460 cells incubated for 48 hrs by sulforhodamine B assay; type: functional
[10] = test system: BT-549; assay: Growth inhibition of human BT-549 cells incubated for 48 hrs by sulforhodamine B assay; type: functional
[11] = test system: LOX IMVI; assay: Growth inhibition of human LOX IMVI cells incubated for 48 hrs by sulforhodamine B assay; type: functional
[12] = test system: DU-145; assay: Growth inhibition of human DU-145 cells incubated for 48 hrs by sulforhodamine B assay; type: functional
[13] = test system: SF-268; assay: Growth inhibition of human SF-268 cells incubated for 48 hrs by sulforhodamine B assay; type: functional
[14] = test system: MDA-MB-468; assay: Growth inhibition of human MDA-MB-468 cells incubated for 48 hrs by sulforhodamine B assay; type: functional
[15] = test system: MCF7; assay: Growth inhibition of human MCF7 cells incubated for 48 hrs by sulforhodamine B assay; type: functional
[16] = target: Tubulin (Homo sapiens) (UniProt P68371+Q9H4B7+P0DPH7+P68366+Q13509+Q71U36+P04350+Q3ZCM7+P07437+P68363+Q9BQE3+Q6PEY2+Q13885+Q9BVA1+Q9BUF5); assay: Inhibition of [3H]colchicine binding to tubulin (unknown origin) at 0.5 uM relative to control; type: protein-complex assay
[17] = test system: A498; assay: Growth inhibition of human A498 cells incubated for 48 hrs by sulforhodamine B assay; type: functional
[18] = test system: PC-3; assay: Growth inhibition of human PC-3 cells incubated for 48 hrs by sulforhodamine B assay; type: functional
[19] = test system: TK-10; assay: Growth inhibition of human TK-10 cells incubated for 48 hrs by sulforhodamine B assay; type: functional
[20] = test system: OVCAR-3; assay: Growth inhibition of human OVCAR-3 cells incubated for 48 hrs by sulforhodamine B assay; type: functional
[21] = test system: MDA-MB-435; assay: Growth inhibition of human MDA-MB-435 cells incubated for 48 hrs by sulforhodamine B assay; type: functional
[22] = test system: HCT-15; assay: Growth inhibition of human HCT-15 cells incubated for 48 hrs by sulforhodamine B assay; type: functional
[23] = test system: NCI/ADR-RES; assay: Growth inhibition of human NCI/ADR-RES cells incubated for 48 hrs by sulforhodamine B assay; type: functional
[24] = test system: RPMI-8226; assay: Growth inhibition of human RPMI-8226 cells incubated for 48 hrs by sulforhodamine B assay; type: functional
[25] = test system: OVCAR-8; assay: Growth inhibition of human OVCAR-8 cells incubated for 48 hrs by sulforhodamine B assay; type: functional
[26] = test system: SN12C; assay: Growth inhibition of human SN12C cells incubated for 48 hrs by sulforhodamine B assay; type: functional

In the case of `COc1ccc(N(C)c2nc(Cl)nc3cnn(C)c23)cc1`, the GI50 [1] is reported as 9.64 nM, the GI50 [2] is reported as 19.9 nM and the GI50 [3] is reported as 14.1 nM. For the same compound, the IC50 [4] was 5 nM, the IC50 [5] was 450 nM and the GI50 [6] was 13.9 nM. For the same compound, the GI50 [7] was 23.6 nM, the GI50 [8] was 11.2 nM and the GI50 [9] was 4.52 nM. For the same compound, the GI50 [10] was 24.1 nM, the GI50 [11] was 8.53 nM and the GI50 [12] was 8.89 nM. For the same compound, the GI50 [13] was 12.2 nM, the GI50 [14] was 9.09 nM and the GI50 [15] was 10.8 nM. The inhibition [16] was 68%, the GI50 [17] was 13.4 nM and the GI50 [18] was 10.7 nM. For the same compound, the GI50 [19] was 16.3 nM, the GI50 [20] was 6.37 nM and the GI50 [21] was 3.9 nM. It also gave a GI50 [22] of 5.14 nM, a GI50 [23] of 8.24 nM and a GI50 [24] of 15.3 nM. The GI50 [25] was 14.7 nM and the GI50 [26] was 15.8 nM.
